Results from PubChem BioAssay (NCI).
Values joined by “and” are separate entries in the source; they are usually repeats but may differ in a detail not shown here. Identical values can stand only once.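 A five-concentration, 48-hour dose response in 96-well plates underlies each endpoint, interpolated linearly between surrounding concentrations. The concentration for 50% growth inhibition is given as GI50. At the TGI there is no net growth.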

Legend:
Experiment in all cases: NCI tumour cell line growth inhibition, 48 h
786-0 renal = test system: 786-0 renal
CCRF-CEM leukemia = test system: CCRF-CEM leukemia
DLD-1 colon = test system: DLD-1 colon
DMS 114 small cell lung = test system: DMS 114 small cell lung
K-562 leukemia = test system: K-562 leukemia
OVCAR-4 ovarian = test system: OVCAR-4 ovarian
OVCAR-8 ovarian = test system: OVCAR-8 ovarian
SK-MEL-2 melanoma = test system: SK-MEL-2 melanoma
SK-MEL-5 melanoma = test system: SK-MEL-5 melanoma
SNB-78 CNS = test system: SNB-78 CNS
BT-549 breast = test system: BT-549 breast
MDA-N = test system: MDA-N
LXFL 529 NSCLC = test system: LXFL 529 NSCLC

SMILES | TGI (786-0 renal) | TGI (CCRF-CEM leukemia) | TGI (DLD-1 colon) | TGI (DMS 114 small cell lung) | TGI (K-562 leukemia) | TGI (OVCAR-4 ovarian) [µM] | TGI (OVCAR-8 ovarian) | TGI (SK-MEL-2 melanoma) | TGI (SK-MEL-5 melanoma) | TGI (SNB-78 CNS) | TGI (BT-549 breast) [µM] | TGI (MDA-N) [µM] | TGI (LXFL 529 NSCLC) | GI50 (DMS 114 small cell lung)
On1c(-c2ccccc2)c(-c2ccccc2N2CCCC2)c2ccccc21 | > 100 µM | > 100 µM | > 100 µM | > 100 µM | > 100 µM | > 100 | > 100 µM | > 100 µM | > 100 µM | > 100 µM | – | – | – | –
O=[N+]([O-])C(=C(Nc1cccc2cccnc12)Nc1cccc2cccnc12)C(Cl)=C(Cl)Cl | > 100 µM | > 100 µM | – | – | > 100 µM | > 96.1 | > 100 µM | > 54 µM | 30.5 µM | – | > 100 | > 69.7 | – | –
N#CNC(=NCc1ccccc1)N(Cc1ccccc1)Cc1ccccc1 | > 31.6 µM | > 31.6 µM | – | – | > 100 µM | > 31.6 | > 31.6 µM | 26.4 µM | 26.7 µM | – | > 100 | > 100 | – | –
C/C(C[n+]1ccccc1)=N\N=C(N)N | > 100 µM | > 100 µM | – | – | > 100 µM | > 100 | > 100 µM | > 100 µM | > 100 µM | – | > 100 | > 100 | – | –
CCOC(=O)C1S/C(=N\C(=N)N[N+](=O)[O-])N=C1C (stereo unspecified) | > 100 µM | – | > 100 µM | > 100 µM | > 100 µM | > 100 | > 100 µM | > 100 µM | – | – | – | – | > 100 µM | –
CCOC(=O)c1cccc(N=Nc2nc[nH]c2/C=C/C(=O)OC)c1 | > 100 µM | > 100 µM | – | – | > 100 µM | > 100 | > 100 µM | 63.5 µM | 36.9 µM | – | > 100 | > 100 | – | –
Cc1c2cc[n+](C)c(C)c2cc2c1[nH]c1ccccc12 | > 39.5 µM | 75.3 µM | > 100 µM | 10.4 µM | 61.3 µM | 43.3 | > 93.4 µM | 30.5 µM | 11 µM | 72.2 µM | 18.9 | > 93.8 | – | –
CCNC(=S)NNC(=O)C12CC3CC(CC(C3)C1)C2 | > 100 µM | > 100 µM | – | – | > 100 µM | > 100 | > 100 µM | > 100 µM | > 100 µM | – | > 100 | > 100 | – | –
O=C(O)CCNc1ncnc2nc[nH]c12 | > 100 µM | > 100 µM | – | – | > 100 µM | > 100 | > 100 µM | > 100 µM | > 100 µM | – | > 100 | > 100 | – | –
Cc1ccc(C2=CC(=O)OC(C[P+](c3ccccc3)(c3ccccc3)c3ccccc3)(c3ccccc3)O2)cc1 (stereo unspecified) | 35.7 µM | 99.4 µM | – | – | > 100 µM | 31.5 | 51.1 µM | 29.2 µM | 29.8 µM | – | 49.2 | 29.2 | – | –
CC1(C)[C@@H]2CC[C@@]1(C)CN(CCC[N+](C)(C)C)C2 | > 100 µM | > 100 µM | – | – | > 100 µM | > 100 | > 100 µM | > 100 µM | > 100 µM | – | > 100 | > 100 | – | –
COC(=O)C(Cc1ccc2c(c1)CCC2)Cc1ccc2c(c1)CCC2 | > 100 µM | > 100 µM | – | – | > 100 µM | > 100 | > 100 µM | > 100 µM | > 100 µM | – | > 100 | > 100 | – | –
O=C(O)COc1ccccc1C(=O)Nc1ccccc1 | > 100 µM | > 100 µM | > 100 µM | – | > 100 µM | > 100 | > 100 µM | > 100 µM | > 100 µM | > 100 µM | – | – | > 100 µM | –
O=C(/C=C/c1ccccc1)Oc1ccc(C(=O)/C=C/c2ccccc2)cc1 | 13.7 µM | 10.9 µM | – | – | > 29.8 µM | 55.5 | 16 µM | > 66.1 µM | 37 µM | – | 17.7 | 12.6 | – | –
Clc1ccc(-c2nnc3sc4nc5ccccc5c-4nn23)c(Cl)c1 | > 100 µM | > 100 µM | – | – | > 100 µM | > 100 | > 100 µM | 82.2 µM | > 100 µM | – | 93.8 | 82.6 | – | –
O=C1OCC/C1=N/O | > 100 µM | > 100 µM | > 100 µM | > 100 µM | > 100 µM | > 100 | > 100 µM | > 100 µM | > 100 µM | > 100 µM | – | – | > 100 µM | –
CCOC(=O)N1CCC(N[C@@H]2c3cc4c(cc3C(c3cc(OC)c(O)c(OC)c3)C3C(=O)OC[C@@H]32)OCO4)CC1 (stereo partly specified) | 2.94 µM and 4.8 µM | 18.9 µM and > 25 µM | 30.6 µM and 14.3 µM | 12.4 µM and 4.81 µM | 22.4 µM and > 25 µM | – | 11.6 µM and 10.3 µM | 14.9 µM and 11.3 µM | 5.71 µM and 5.32 µM | 50 µM and > 25 µM | – | – | 21.4 µM and > 25 µM | 1.9 µM and 0.747 µM
O=C(O)CN1CCN2CCCCCN(CC1)CCN(CC(=O)O)CC2 | > 100 µM | > 100 µM | – | – | > 100 µM | > 100 | > 100 µM | > 100 µM | > 100 µM | – | > 100 | > 100 | – | –
CC(C)SC(=S)Sc1c(Cl)c(Cl)nc(Cl)c1Cl | 5.54 µM | 6.09 µM | – | – | 10.7 µM | 28.4 | 10.5 µM | 22.4 µM | 29.1 µM | – | 34.2 | 11.1 | – | –
CCCCCCCCCCCC[S+](C)C | 13.3 µM | 14.5 µM | 25.9 µM | 13.4 µM | 49.4 µM | 18.8 | 17.9 µM | 17.6 µM | 9.25 µM | 26.6 µM | 7.68 | 15.5 | – | –
O=C(O)C(Cl)(Cl)Cl | – | > 100 µM | > 100 µM | > 100 µM | > 100 µM | > 100 | > 100 µM | > 100 µM | > 100 µM | > 100 µM | – | – | > 100 µM | –
